Experimental data as given in patent US20120172359A1 (NOVARTIS AG, priority 2010, published 2012).
pIC50: −log10 of the molar value. Structures can show the parent of a compound that is named as a salt.

Target: Human BACE-1 (Homo sapiens, UniProt P56817)
Assay: Test 1: Inhibition of Human BACE-1
Assay type: biochemical
Conditions: Test 1; recombinant BACE-1 (extracellular domain), acetate buffer pH 4.5, 1 hour with test compound at room temperature, fluorescence-quenched peptide substrate; read-out: Bace IC50

Sequence of Human BACE-1 (P56817 46-457 limits assumed): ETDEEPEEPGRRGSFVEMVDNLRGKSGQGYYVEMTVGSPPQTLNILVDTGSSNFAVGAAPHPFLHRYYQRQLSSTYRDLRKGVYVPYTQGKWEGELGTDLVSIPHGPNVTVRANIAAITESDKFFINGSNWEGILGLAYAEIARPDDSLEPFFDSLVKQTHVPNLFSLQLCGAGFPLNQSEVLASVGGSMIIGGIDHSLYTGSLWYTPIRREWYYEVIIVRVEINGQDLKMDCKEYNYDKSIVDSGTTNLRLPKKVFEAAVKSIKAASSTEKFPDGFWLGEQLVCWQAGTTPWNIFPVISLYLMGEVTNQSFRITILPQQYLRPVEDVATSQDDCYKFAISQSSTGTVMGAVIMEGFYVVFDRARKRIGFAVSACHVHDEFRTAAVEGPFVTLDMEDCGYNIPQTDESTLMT

**Q.** With CC1(c2cccc(NC(=O)c3ncccc3F)c2)COCC(N)=N1 (stereo not shown) [Example 9, 3-Fluoro-pyridine-2-carboxylic acid [3-(5-amino-3-methyl-3,6-dihydro-2H-[1,4]oxazin-3-yl)-phenyl]-amide] as the molecule, how does the pIC50 read?
**A.** 5.64

**Q.** With COc1ccc(C(=O)Nc2ccc(F)c([C@]3(C(F)F)COCC(N)=N3)c2)nc1 [Example 49, 5-Methoxy-pyridine-2-carboxylic acid [3-((R)-5-amino-3-difluoromethyl-3,6-dihydro-2H-[1,4]oxazin-3-yl)-4-fluoro-phenyl]-amide] as the molecule, how does the pIC50 read?
**A.** 7.30

**Q.** Cc1c(C(=O)Nc2ccc(F)c([C@]3(C(F)F)COCC(N)=N3)c2)oc2ccc(Br)cc12 [Example 114, 5-Bromo-3-methyl-benzofuran-2-carboxylic acid [3-((R)-5-amino-3-difluoromethyl-3,6-dihydro-2H-[1,4]oxazin-3-yl)-4-fluoro-phenyl]-amide hydrochloride] was tested. Which pIC50 did it give?
**A.** 8.22

**Q.** How did the pIC50 turn out when Cc1cc(Br)cnc1C(=O)Nc1cc(Br)cc([C@]2(C)COCC(N)=N2)c1 [Example 55, 5-Bromo-3-methyl-pyridine-2-carboxylic acid [3-((R)-5-amino-3-methyl-3,6-dihydro-2H-[1,4]oxazin-3-yl)-5-bromo-phenyl]-amide] was run?
**A.** 7.08

**Q.** NC1=N[C@@](c2cc(NC(=O)c3ccc(Br)cn3)ccc2F)(C(F)F)CCOC1 [Example 97, 5-Bromo-pyridine-2-carboxylic acid[3-((S)-3-amino-5-difluoromethyl-2,5,6,7-tetrahydro-[1,4]oxazepin-5-yl)-4-fluoro-phenyl]-amide hydrochloride] was tested. Which pIC50 did it give?
**A.** 7.74

**Q.** CC1(c2cc(NC(=O)c3ccc(Br)cn3)ccc2F)N=C(N)COCC1(F)F (stereo not shown) [Example 101, 5-Bromo-pyridine-2-carboxylic acid [3-(3-amino-6,6-difluoro-5-methyl-2,5,6,7-tetrahydro-[1,4]oxazepin-5-yl)-4-fluoro-phenyl]-amide] was tested. Which pIC50 did it give?
**A.** 7.52

**Q.** With NC1=N[C@@](c2cc(NC(=O)c3ncc(Cl)cc3Cl)ccc2F)(C(F)F)COC1 [Example 111, 3,5-Dichloro-pyridine-2-carboxylic acid [3-((R)-5-amino-3-difluoromethyl-3,6-dihydro-2H-[1,4]oxazin-3-yl)-4-fluoro-phenyl]-amide hydrochloride] as the molecule, how does the pIC50 read?
**A.** 7.60

**Q.** How did the pIC50 turn out when CC1(c2cccc(NC(=O)C3CCCCC3)c2)COCC(N)=N1 (stereo not shown) [Example 25, reference compound] was run?
**A.** < 3.89

**Q.** How did the pIC50 turn out when NC1=N[C@@](c2cc(NC(=O)c3ncc(C(F)(F)F)cc3Cl)ccc2F)(C(F)F)COC1 [Example 46, 3-Chloro-5-trifluoromethyl-pyridine-2-carboxylic acid [3-((R)-5-amino-3-difluoromethyl-3,6-dihydro-2H-[1,4]oxazin-3-yl)-4-fluoro-phenyl]-amide] was run?
**A.** 7.15

**Q.** With CC1(C)OC[C@](c2cc(NC(=O)c3ccc(C#N)cn3)ccc2F)(C(F)F)N=C1N [Example 79, 5-Cyano-pyridine-2-carboxylic acid[3-(5-amino-3-difluoromethyl-6,6-dimethyl-3,6-dihydro-2H-[1,4]oxazin-3-yl)-4-fluoro-phenyl]-amide] as the molecule, how does the pIC50 read?
**A.** 6.92

**Q.** With COc1cc(Br)cnc1C(=O)Nc1ccc(F)c(C2(C)N=C(N)COCC2(F)F)c1 (stereo not shown) [Example 155, 5-Bromo-3-methoxy-pyridine-2-carboxylic acid [3-(3-amino-6,6-difluoro-5-methyl-2,5,6,7-tetrahydro-[1,4]oxazepin-5-yl)-4 fluoro-phenyl]-amide] as the molecule, how does the pIC50 read?
**A.** 6.74

**Q.** How did the pIC50 turn out when NC1=N[C@@](c2cc(NC(=O)c3ncc(OC(F)F)cc3Cl)ccc2F)(C(F)F)COC1 [Example 185, 3-Chloro-5-difluoromethoxy-pyridine-2-carboxylic acid [3-((R)-5-amino-3-difluoromethyl-3,6-dihydro-2H-[1,4]oxazin-3-yl)-4-fluoro-phenyl]-amide] was run?
**A.** 7.30

**Q.** How did the pIC50 turn out when CC1(c2cccc(NC(=O)c3ncc(Br)cn3)c2)COCC(N)=N1 (stereo not shown) [Example 7, 5-Bromo-pyrimidine-2-carboxylic acid [3-(5-amino-3-methyl-3,6-dihydro-2H-[1,4]oxazin-3-yl)-phenyl]-amide] was run?
**A.** 6.27

**Q.** How did the pIC50 turn out when COc1ccc(C(=O)Nc2ccc(F)c([C@]3(C)CO[C@@](C)(C(F)(F)F)C(N)=N3)c2)nc1 (relative stereo) [Example 69, 5-Methoxy-pyridine-2-carboxylic acid [3-((3R*,6R*)-5-amino-3,6-di-methyl-6-trifluoromethyl-3,6-di-hydro-2H-[1,4]oxazin-3-yl)-4-fluoro-phenyl]-amide hydrochloride] was run?
**A.** 8.05

**Q.** With COCc1cnc(C(=O)Nc2ccc(F)c([C@]3(C(F)F)COCC(N)=N3)c2)c(Cl)c1 [Example 183, 3-Chloro-5-methoxymethyl-pyridine-2-carboxylic acid [3-((R)-5-amino-3-difluoromethyl-3,6-dihydro-2H-[1,4]oxazin-3-yl)-4-fluoro-phenyl]-amide] as the molecule, how does the pIC50 read?
**A.** 6.15

**Q.** NC1=N[C@@](c2cc(NC(=O)c3ncc(Br)cc3Cl)ccc2F)(C(F)F)COC1 [Example 117, 5-Bromo-3-chloro-pyridine-2-carboxylic acid [3-((R)-5-amino-3-difluoromethyl-3,6-dihydro-2H-[1,4]oxazin-3-yl)-4-fluoro-phenyl]-amide hydrochloride] was tested. Which pIC50 did it give?
**A.** 7.74

**Q.** With NC1=NC(c2cc(NC(=O)c3ccc(Br)cn3)ccc2F)(C(F)F)COC1 (stereo not shown) [Example 42, 5-Bromo-pyridine-2-carboxylic acid [3-(5-amino-3-difluoromethyl-3,6-dihydro-2H-[1,4]oxazin-3-yl)-4-fluoro-phenyl]-amide hydrochloride] as the molecule, how does the pIC50 read?
**A.** 7.25

**Q.** Cc1cc(Br)cnc1C(=O)Nc1cccc(C2(C(F)F)COCC(N)=N2)c1 (stereo not shown) [Example 37, 5-Bromo-3-methyl-pyridine-2-carboxylic acid [3-(5-amino-3-difluoromethyl-3,6-dihydro-2H-[1,4]oxazin-3-yl)-phenyl]-amide] was tested. Which pIC50 did it give?
**A.** 6.92

**Q.** How did the pIC50 turn out when NC1=N[C@](CF)(c2cc(NC(=O)c3ccc(Cl)cn3)ccc2F)COC1 [Example 85, 5-Chloro-pyridine-2-carboxylic acid [3-((R)-5-amino-3-fluoromethyl-3,6-dihydro-2H-[1,4]oxazin-3-yl)-4-fluoro-phenyl]-amide hydrochloride] was run?
**A.** 7.59

**Q.** N#Cc1ccc(C(=O)Nc2cc(C3(C(F)F)COCC(N)=N3)c(F)cc2F)nc1 (stereo not shown) [Example 82, 5-Cyano-pyridine-2-carboxylic acid [5-(5-amino-3-difluoromethyl-3,6-dihydro-2H-[1,4]oxazin-3-yl)-2,4-difluoro-phenyl]-amide hydrochloride] was tested. Which pIC50 did it give?
**A.** 5.52

**Q.** With C[C@@]1(c2cc(Br)cc(NC(=O)c3ncc(Br)cn3)c2)COCC(N)=N1 [Example 51, 5-Bromo-pyrimidine-2-carboxylic acid [3-((R)-5-amino-3-methyl-3,6-dihydro-2H-[1,4]oxazin-3-yl)-5-bromo-phenyl]-amide hydrochloride] as the molecule, how does the pIC50 read?
**A.** 6.64

**Q.** With COCCOc1cnc(C(=O)Nc2ccc(F)c([C@]3(C(F)F)COCC(N)=N3)c2)c(F)c1 [Example 181, 3-Fluoro-5-(2-methoxy-ethoxy)-pyridine-2-carboxylic acid [3-((R)-5-amino-3-difluoromethyl-3,6-dihydro-2H-[1,4]oxazin-3-yl)-4-fluoro-phenyl]-amide] as the molecule, how does the pIC50 read?
**A.** 6.47

**Q.** With COc1cnc(C(=O)Nc2ccc(F)c([C@]3(C(F)F)COCC(N)=N3)c2)c(Cl)c1 [Example 161, 3-Chloro-5-methoxy-pyridine-2-carboxylic acid [3-((R)-5-amino-3-difluoromethyl-3,6-dihydro-2H-[1,4]oxazin-3-yl)-4-fluoro-phenyl]-amide] as the molecule, how does the pIC50 read?
**A.** 7.18

**Q.** How did the pIC50 turn out when NC1=N[C@@](c2cc(NC(=O)c3cc4ccccn4n3)ccc2F)(C(F)F)COC1 [Example 126, Pyrazolo[1,5-a]pyridine-2-carboxylic acid [3-((R)-5-amino-3 difluoromethyl-3,6-dihydro-2H [1,4]oxazin-3-yl)-4-fluoro-phenyl]-amide hydrochloride] was run?
**A.** 6.13

**Q.** How did the pIC50 turn out when CC1(c2cccc(NC(=O)c3cnc(-n4ccc(C(F)(F)F)n4)cn3)c2)COCC(N)=N1 (stereo not shown) [Example 15, 5-(3-Trifluoromethyl-pyrazol-1-yl)-pyrazine-2-carboxylic acid [3-(5-amino-3-methyl-3,6-dihydro-2H-[1,4]oxazin-3-yl)-phenyl]-amide] was run?
**A.** 5.04

**Q.** With NC1=N[C@@](c2cc(NC(=O)c3ccc(C(F)F)cn3)ccc2F)(C(F)F)COC1 [Example 132, 5-Difluoromethyl-pyridine-2-carboxylic acid [3-((R)-5-amino-3-difluoromethyl-3,6-dihydro-2H-[1,4]oxazin-3-yl)-4-fluoro-phenyl]-amide hydrochloride] as the molecule, how does the pIC50 read?
**A.** 7.06

**Q.** How did the pIC50 turn out when Cc1cnc(C(=O)Nc2cc(Br)cc([C@]3(C)COCC(N)=N3)c2)cn1 [Example 57, 5-Methyl-pyrazine-2-carboxylic acid [3-((R)-5-amino-3-methyl-3,6-dihydro-2H-[1,4]oxazin-3-yl)-5-bromo-phenyl]-amide] was run?
**A.** 5.77

**Q.** With CC1(c2cc(NC(=O)c3ccc(C(N)=O)cn3)ccc2F)COCC(N)=N1 (stereo not shown) [Example 65, Pyridine-2,5-dicarboxylic acid 5-amide 2-{[3-(5-amino-3-methyl-3,6-dihydro-2H-[1,4]oxazin-3-yl)-4-fluoro-phenyl]-amide} hydrochloride] as the molecule, how does the pIC50 read?
**A.** 5.92

**Q.** How did the pIC50 turn out when Cc1c(C(=O)Nc2ccc(F)c([C@]3(C(F)F)COCC(N)=N3)c2)nnn1C [Example 173, 1,5-Dimethyl-1H-[1,2,3]triazole-4-carboxylic acid [3-((R)-5-amino-3-difluoromethyl-3,6-dihydro-2H-[1,4]oxazin-3-yl)-4-fluoro-phenyl]-amide] was run?
**A.** < 5.00

**Q.** How did the pIC50 turn out when CC1(c2cc(NC(=O)c3ccc(C#N)cn3)ccc2F)COCC(N)=N1 (stereo not shown) [Example 62, 5-Cyano-pyridine-2-carboxylic acid [3-(5-amino-3-methyl-3,6-dihydro-2H-[1,4]oxazin-3-yl)-4-fluoro-phenyl]-amide hydrochloride] was run?
**A.** 7.02

**Q.** Cc1cnc(C(=O)Nc2ccc(F)c([C@]3(C(F)F)COCC(N)=N3)c2)s1 [Example 149, 5-Methyl-thiazole-2-carboxylic acid [3-((R)-5-amino-3-difluoromethyl-3,6-dihydro-2H-[1,4]oxazin-3-yl)-4-fluoro-phenyl]-amide hydrochloride] was tested. Which pIC50 did it give?
**A.** 6.15
